Our source for the Bliss excess values is the supplement of paper PMC11061612.

Common to all, as to assay: Bliss excess, mean over the matrix (fraction); higher = more synergy
Test [1] concerns AN3-CA (Endometrial Carcinoma). The gist of the method:
(§1)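 Bliss excess equals the observed combination effect minus the expected value EA + EB − EA·EB, where EA and EB are the effects of each agent alone. Combination Emax is the second-highest inhibition within the matrix. Inhibition was scaled from CellTiter-Glo 2.0 luminescence, with 0 set by vehicle wells and 1 by blank wells, after 72 hours of two-drug dosing of cells plated in 1536-well plates.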

The test system of test [2] is BALL-1 (B-Lymphoblastic Leukemia). The gist of the method:
as §1

The test system of test [3] is Becker (Low Grade Glioma). In short, it runs like this:
as §1

In test [4] the test system is CML-T1 (Chronic Myelogenous Leukemia). In short, it runs like this: as §1
For test [5], the system named is Calu-6 (Non-Small Cell Lung Carcinoma). The gist of the method:
as §1

The test system of test [6] is Caov-3 (Ovarian Carcinoma). In short, it runs like this: as §1
Test [7] deals with EB-3 (Burkitt's Lymphoma). The gist of the method:
as §1

Test [8] has as its system ES-2 (Ovarian Carcinoma). In short, it runs like this: as §1
Test [9] deals with FLO-1 (Esophageal Adenocarcinoma). The gist of the method:
as §1

Test [10] has as its system KYSE-70 (Esophageal Squamous Cell Carcinoma). The gist of the method:
as §1

Test [11] deals with LAMA-84 (Chronic Myelogenous Leukemia). The gist of the method: as §1
The test system of test [12] is LOUCY (T-Lymphoblastic Leukemia). In short, it runs like this: as §1
Test [13] deals with NCI-H1563 (Lung Adenocarcinoma). In short, it runs like this: as §1
Test [14] relates to NCI-H1623 (Lung Adenocarcinoma). The gist of the method:
as §1

Test [15] concerns NCI-H1755 (Lung Adenocarcinoma). The gist of the method: as §1
Test [16] deals with NCI-H196 (Small Cell Lung Carcinoma). In short, it runs like this: as §1
The subject of test [17] is NCI-H810 (Non-Small Cell Lung Carcinoma). In short, it runs like this:
as §1

In test [18] the test system is RERF-LC-KJ (Lung Adenocarcinoma). The gist of the method:
as §1

For test [19], the system named is SJRH30 (Rhabdomyosarcoma). The gist of the method: as §1
Test [20] concerns SW684 (Other Solid Carcinomas). The gist of the method: as §1

`CN(CCO)CC[C@H](CSc1ccccc1)Nc1ccc(S(=O)(=O)NC(=O)c2ccc(N3CCC([C@@H](O)c4ccccc4-c4ccc(Cl)cc4)CC3)cc2)cc1S(=O)(=O)C(F)(F)F` [AZD4320] + C[C@@H](Nc1cc(F)cc(F)c1)c1cc(C(=O)N(C)C)cc2c(=O)cc(N3CCOCC3)oc12 [AZD8186] (first compound max 1 µM, 7x7, partner max 3 µM): the Bliss excess in test [1] was -0.0339; in [2] it was 0.0506; in test [3], 0.0186; in test [4], 0.0035; in test [5] it was 0.0264; in test [6] it was -0.019. Also, the Bliss excess in test [7] is 0.0368; in test [8] it was 0.0151; in test [9], -0.0261; in [10], 0.0092; in [11] it was 0.0355; in test [12], 0.0111. In addition, the Bliss excess in [13] is 0.0295; in test [14], 0.0105; in [15], 0.012; in test [16], 0.0427; in [17], -0.0461; in test [18] it was 0.0703. Further, the Bliss excess in test [19] was 0.0718; in test [20], -0.0356.
With `CN(CCO)CC[C@H](CSc1ccccc1)Nc1ccc(S(=O)(=O)NC(=O)c2ccc(N3CCC([C@@H](O)c4ccccc4-c4ccc(Cl)cc4)CC3)cc2)cc1S(=O)(=O)C(F)(F)F` [AZD4320] + Cc1cc2ncnn2cc1Nc1ncc2c(n1)n(C1CCOCC1)c(=O)n2C [AZD7648] (first compound max 1 µM, 7x7, partner max 10 µM), the Bliss excess in test [1] is -0.0057; in test [2], 0.0087; in test [3] it was -0.0211; in test [4], 0.0044; in test [5], -0.0522; in test [6], -0.0199. In addition, the Bliss excess was -0.0076 in test [7]; -0.0186 in [8]; -0.0358 in test [9]; -0.0225 in test [10]; -0.0161 in test [11]; 0.0365 in [12]. Moreover, the Bliss excess in test [13] was -0.0322; in test [14] it was -0.0206; in test [15], -0.0279; in test [16], -0.0395; in [17], 0.004; in [18], -0.0314. For the same compound, the Bliss excess is -0.0072 in [19] and -0.0628 in test [20].
For `CN(CCO)CC[C@H](CSc1ccccc1)Nc1ccc(S(=O)(=O)NC(=O)c2ccc(N3CCC([C@@H](O)c4ccccc4-c4ccc(Cl)cc4)CC3)cc2)cc1S(=O)(=O)C(F)(F)F` [AZD4320] + Cn1cnc2c(F)c(Nc3ccc(Br)cc3Cl)c(C(=O)NOCCO)cc21 [Selumetinib] (first compound max 1 µM, 7x7, partner max 3 µM), the Bliss excess in [1] was 0.0455; in [2] it was -0.0246; in test [3], 0.0084; in [4], -0.0155; in test [5] it was -0.0019; in [6] it was -0.0406. The Bliss excess in test [7] was -0.036; in [8], 0.0164; in test [9], 0.0109; in test [10], 0.0554; in test [11], 0.0207; in test [12], 0.0255. The Bliss excess in [13] is 0.045; in test [14], 0.162; in test [15] it was 0.0081; in [16], -0.0339; in test [17] it was -0.0577; in test [18], 0.0144. Besides, the Bliss excess was determined as 0.0587 in test [19] and 0.0194 in test [20].
Regarding `Cc1c2c(nn1C)CSCc1cc(n(C)n1)CSc1cc(c3ccccc3c1)OCCCc1c(C(=O)O)n(C)c3c-2c(Cl)ccc13` [AZD5991] + C1CN(CCC1(C(=O)N[C@@H](CCO)C2=CC=C(C=C2)Cl)N)C3=NC=NC4=C3C=CN4 [Capivasertib] (first compound max 1 µM, 7x7, partner max 3 µM), the Bliss excess in test [1] was 0.145; in test [2] it was 0.0369; in test [3] it was -0.0169; in test [4] it was -0.0081; in test [5] it was 0.0106; in test [6], -0.01. The Bliss excess was -0.0013 in test [7]; -0.0021 in test [8]; -0.0072 in test [9]; 0.0065 in [10]; 0.0007 in test [11]; 0.0143 in test [12]. For the same compound, the Bliss excess in test [13] was 0.0837; in test [14] it was 0.0471; in test [15] it was 0.0186; in [16], -0.0499; in [17] it was 0.0083; in [18], -0.0112. The Bliss excess in test [19] is 0.0568; in test [20] it was -0.0298.
With `Cc1c2c(nn1C)CSCc1cc(n(C)n1)CSc1cc(c3ccccc3c1)OCCCc1c(C(=O)O)n(C)c3c-2c(Cl)ccc13` [AZD5991] + C=CCn1c(=O)c2cnc(Nc3ccc(N4CCN(C)CC4)cc3)nc2n1-c1cccc(C(C)(C)O)n1 [AZD1775] (first compound max 1 µM, partner max 1 µM), the Bliss excess in test [1] was -0.0512; in test [2] it was -0.0181; in test [3], -0.0319; in [4], -0.0151; in test [5], -0.0963; in test [6], -0.0274. The Bliss excess in test [7] is -0.0242; in [8], -0.0399; in [9], -0.0047; in test [10] it was 0.015; in test [11] it was 0.0422; in [12] it was -0.003. Further, the Bliss excess in [13] is 0.0004; in test [14], 0.0167; in [15] it was 0.0006; in test [16], -0.0266; in test [17] it was 0.0025; in [18], 0.0255. The Bliss excess is -0.0362 in test [19] and -0.0161 in test [20].
As for `Cc1c2c(nn1C)CSCc1cc(n(C)n1)CSc1cc(c3ccccc3c1)OCCCc1c(C(=O)O)n(C)c3c-2c(Cl)ccc13` [AZD5991] + CC1(C)CCC(CN2CCN(c3ccc(C(=O)NS(=O)(=O)c4ccc(NCC5CCOCC5)c([N+](=O)[O-])c4)c(Oc4cnc5[nH]ccc5c4)c3)CC2)=C(c2ccc(Cl)cc2)C1 [Venetoclax] (first compound max 1 µM, 7x7, partner max 1 µM), the Bliss excess is 0.111 in test [1]; 0.117 in [2]; -0.0033 in test [3]; 0.116 in [4]; -0.0014 in test [5]; 0.0262 in [6]. The Bliss excess in test [7] was -0.0151; in test [8], -0.0082; in [9], -0.0597; in test [10], -0.0296; in test [11] it was -0.0185; in test [12] it was 0.154. For the same compound, the Bliss excess in test [13] was 0.0236; in test [14], 0.0111; in [15] it was -0.0422; in [16] it was -0.0251; in test [17] it was -0.0267; in [18], 0.0047. Moreover, the Bliss excess is 0.0289 in [19] and -0.0596 in test [20].
